Calls of active or inactive are those of the source.
Key:
[1] = target: T1, Multidrug resistance protein CDR2 (Candida albicans (strain SC5314 / ATCC MYA-2876) (Yeast), UniProt P78595); experiment: CaCDR2 efflux pump inhibitors in yeast, dose response, S. cerevisiae AD1-8u, singleplex, Cherry Pick1 hits (AID 588604); format: functional
[2] = target: Melanocortin receptor 4 (Homo sapiens, UniProt P32245); format: functional, cell-based;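 further: Cell-based assay with luminescence read-out, confirmatory dose-response testing for agonist activity of biased ligands at MC4R; human U2OS cells with tagged receptor and beta-arrestin; potency of agonists that increase receptor coupling to beta-arrestin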
Chain of Melanocortin receptor 4 (P32245 whole entry): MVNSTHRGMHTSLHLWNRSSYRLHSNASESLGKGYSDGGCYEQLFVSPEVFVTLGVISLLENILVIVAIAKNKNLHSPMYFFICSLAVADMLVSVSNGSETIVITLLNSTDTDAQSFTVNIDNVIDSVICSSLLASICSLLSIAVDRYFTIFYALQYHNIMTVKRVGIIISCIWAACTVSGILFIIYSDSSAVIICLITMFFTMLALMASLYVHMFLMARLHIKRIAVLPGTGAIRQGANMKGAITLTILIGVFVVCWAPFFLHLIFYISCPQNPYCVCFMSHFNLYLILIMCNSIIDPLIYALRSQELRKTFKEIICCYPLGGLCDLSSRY

[3] = target: T2, Insulin-degrading enzyme (Homo sapiens, UniProt P14735); experiment: activators of endogenous IDE in HEK cells, dose response, cell-based, fluorescence polarization (AID 588439); format: functional
T2 sequence (P14735 whole entry): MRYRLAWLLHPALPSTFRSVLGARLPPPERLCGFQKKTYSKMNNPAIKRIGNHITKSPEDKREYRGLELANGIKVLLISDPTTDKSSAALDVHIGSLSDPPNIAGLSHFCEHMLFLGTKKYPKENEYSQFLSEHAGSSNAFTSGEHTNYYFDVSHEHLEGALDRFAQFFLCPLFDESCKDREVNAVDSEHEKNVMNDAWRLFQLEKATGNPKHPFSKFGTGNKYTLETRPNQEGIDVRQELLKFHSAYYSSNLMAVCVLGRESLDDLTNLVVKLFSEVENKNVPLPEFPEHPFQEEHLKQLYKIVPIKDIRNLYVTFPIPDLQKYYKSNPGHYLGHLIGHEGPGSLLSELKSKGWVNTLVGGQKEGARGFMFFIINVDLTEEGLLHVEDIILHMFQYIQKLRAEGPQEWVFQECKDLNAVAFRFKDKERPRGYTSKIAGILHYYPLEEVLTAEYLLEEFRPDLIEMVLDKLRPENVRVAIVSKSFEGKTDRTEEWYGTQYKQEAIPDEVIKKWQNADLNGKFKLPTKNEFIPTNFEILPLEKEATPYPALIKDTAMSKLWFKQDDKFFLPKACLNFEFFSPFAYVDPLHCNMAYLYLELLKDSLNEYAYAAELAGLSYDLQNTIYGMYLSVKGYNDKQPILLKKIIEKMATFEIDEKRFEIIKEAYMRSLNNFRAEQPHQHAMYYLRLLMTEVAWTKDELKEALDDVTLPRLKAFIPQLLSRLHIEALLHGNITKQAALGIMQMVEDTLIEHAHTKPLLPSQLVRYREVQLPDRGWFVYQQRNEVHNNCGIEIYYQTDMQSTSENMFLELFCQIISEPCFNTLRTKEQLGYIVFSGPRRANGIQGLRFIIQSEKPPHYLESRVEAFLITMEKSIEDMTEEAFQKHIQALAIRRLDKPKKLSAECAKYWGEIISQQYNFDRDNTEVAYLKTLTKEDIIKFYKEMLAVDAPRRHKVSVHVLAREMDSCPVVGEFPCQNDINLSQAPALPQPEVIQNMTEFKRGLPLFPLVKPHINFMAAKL

[4] = test system: HEK293; experiment: HEK cell cytotoxicity by LDH release, dose response, cytotoxicity control for IDE activator project, fluorescence, HEK cells (AID 588440); format: functional, cell-based; details: Homo sapiens;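 further: cytotoxicity by LDH release measuring loss of membrane integrity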
[5] = target: T2, Insulin-degrading enzyme; experiment: activators of recombinant IDE enzyme, dose response, counter-screen for IDE activator project, biochemical, fluorescence polarization (AID 588681)
[6] = target: T1, Multidrug resistance protein CDR2; experiment: CaCDR2 efflux pump inhibitors in yeast, dose response, S. cerevisiae AD1-8u, singleplex, Cherry Pick2 set (AID 623994); format: functional; details: read-out: EC50_MICROM
[7] = test system: HEK293; experiment: optical interference in Abeta FP readout, dose response, artefact control for IDE activator project, biochemical, fluorescence polarization (AID 588442); format: functional, cell-based; details: Homo sapiens
[8] = target: Melanin-concentrating hormone receptor 1 (Homo sapiens, UniProt Q99705); experiment: Late-stage fluorescence-based counterscreen for antagonists of the G-protein coupled receptor 7 (GPR7): cell-based dose response assay to identify antagonists of the melanin-concentrating hormone receptor 1 (MCHR1) Set 5.; format: functional
[9] = target: T3, Neuropeptides B/W receptor type 1 (Homo sapiens, UniProt P48145); experiment: GPR7 antagonist potency, late-stage follow-up, cell-based, fluorescence, dose response, set 5 (AID 588566); format: functional
T3 sequence (P48145 whole entry): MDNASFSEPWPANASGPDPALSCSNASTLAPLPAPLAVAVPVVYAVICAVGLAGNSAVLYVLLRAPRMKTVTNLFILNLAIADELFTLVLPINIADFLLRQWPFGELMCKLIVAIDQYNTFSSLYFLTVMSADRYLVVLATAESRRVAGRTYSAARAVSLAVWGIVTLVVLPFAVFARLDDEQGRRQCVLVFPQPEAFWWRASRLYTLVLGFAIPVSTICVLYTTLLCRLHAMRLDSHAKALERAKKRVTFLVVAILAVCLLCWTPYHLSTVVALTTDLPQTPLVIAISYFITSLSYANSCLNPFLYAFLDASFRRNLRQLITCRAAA

[10] = target: LIM domain kinase 1 (Homo sapiens, UniProt P53667); experiment: Navigating the Kinome. Panel member name: LIMK1; format: functional
[11] = target: Serine/threonine-protein kinase Chk1 (Homo sapiens, UniProt O14757); format: functional;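 further: measured as one member of a kinome-wide kinase profiling panel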
[12] = target: Cyclin-dependent kinase 7 (Homo sapiens, UniProt P50613); format: functional;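 further: value comes from a kinome-wide kinase profiling panel in which CDK7 is one member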
Chain of Cyclin-dependent kinase 7 (P50613 whole entry): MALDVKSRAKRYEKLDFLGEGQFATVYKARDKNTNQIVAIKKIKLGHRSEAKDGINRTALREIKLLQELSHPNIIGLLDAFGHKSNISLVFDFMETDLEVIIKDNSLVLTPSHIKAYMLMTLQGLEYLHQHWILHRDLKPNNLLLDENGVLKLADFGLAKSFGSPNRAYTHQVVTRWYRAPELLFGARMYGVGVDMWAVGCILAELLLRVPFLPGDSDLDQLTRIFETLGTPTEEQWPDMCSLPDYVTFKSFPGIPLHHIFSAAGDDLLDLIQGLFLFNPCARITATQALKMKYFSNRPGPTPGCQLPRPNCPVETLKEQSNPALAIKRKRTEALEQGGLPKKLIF

[13] = target: Serine/threonine-protein kinase PAK 4 (Homo sapiens, UniProt O96013); format: functional;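 further: value obtained within a kinome profiling panel in which PAK4 was one of the panel members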
[14] = target: High affinity nerve growth factor receptor (Homo sapiens, UniProt P04629); format: functional;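 further: NTRK1 tested as one member of a kinome-wide profiling panel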
[15] = target: Dual specificity mitogen-activated protein kinase kinase 2 (Homo sapiens, UniProt P36507); experiment: Navigating the Kinome. Panel member name: MAP2K2; format: functional
[16] = target: ALK tyrosine kinase receptor (Homo sapiens, UniProt Q9UM73); format: functional;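 further: ALK tested as one member of a kinase panel screen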
[17] = target: Leukocyte tyrosine kinase receptor (Homo sapiens, UniProt P29376); experiment: Navigating the Kinome. Panel member name: LTK; format: functional
[18] = target: Vascular endothelial growth factor receptor 1 (Homo sapiens, UniProt P17948); format: functional;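 further: measured within a kinome-wide profiling panel, FLT1 as the panel member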
[19] = target: Dual specificity protein kinase CLK2 (Homo sapiens, UniProt P49760); format: functional
[20] = target: Vascular endothelial growth factor receptor 2 (Homo sapiens, UniProt P35968); format: functional
[21] = target: Insulin-like growth factor 1 receptor (Homo sapiens, UniProt P08069); experiment: Navigating the Kinome. Panel member name: IGF1R; format: functional
[22] = target: Tyrosine-protein kinase Fyn (Homo sapiens, UniProt P06241); format: functional
[23] = target: Cyclin-dependent kinase 8 (Homo sapiens, UniProt P49336); experiment: Navigating the Kinome. Panel member name: CDK8; format: functional
[24] = target: Tyrosine-protein kinase Lck (Homo sapiens, UniProt P06239); format: functional;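 further: lck was assayed as one member of a kinase panel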
[25] = target: Serine/threonine-protein kinase pim-1 (Homo sapiens, UniProt P11309); format: functional
[26] = target: Cyclin-dependent kinase 5 (Homo sapiens, UniProt Q00535); format: functional;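 further: CDK5 measured as one member of a kinase profiling panel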
Chain of Cyclin-dependent kinase 5 (Q00535 whole entry): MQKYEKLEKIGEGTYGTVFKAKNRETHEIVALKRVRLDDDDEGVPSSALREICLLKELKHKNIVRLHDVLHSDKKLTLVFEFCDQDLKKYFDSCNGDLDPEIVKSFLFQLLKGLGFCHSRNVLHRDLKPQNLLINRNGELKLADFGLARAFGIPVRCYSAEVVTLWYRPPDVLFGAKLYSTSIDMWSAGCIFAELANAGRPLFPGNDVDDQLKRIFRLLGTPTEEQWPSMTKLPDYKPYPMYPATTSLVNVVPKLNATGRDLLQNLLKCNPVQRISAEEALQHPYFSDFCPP

[27] = target: Serine/threonine-protein kinase D3 (Homo sapiens, UniProt O94806); format: functional;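 further: determined within a kinase panel screen, with PRKCN as the panel member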
[28] = target: Death-associated protein kinase 3 (Homo sapiens, UniProt O43293); format: functional;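 further: measured as one member of a kinome-wide profiling panel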
[29] = target: Leucine-rich repeat serine/threonine-protein kinase 2 (Homo sapiens, UniProt Q5S007); format: functional;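 further: value from a broad kinome-wide panel profiling study in which LRRK2 was one of the kinases tested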
[30] = target: Serine/threonine-protein kinase TAO1 (Homo sapiens, UniProt Q7L7X3); format: functional
[31] = target: Mitogen-activated protein kinase 9 (Homo sapiens, UniProt P45984); format: functional;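 further: value from a kinome panel profiling assay, MAPK9 panel entry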
Chain of Mitogen-activated protein kinase 9 (P45984 whole entry): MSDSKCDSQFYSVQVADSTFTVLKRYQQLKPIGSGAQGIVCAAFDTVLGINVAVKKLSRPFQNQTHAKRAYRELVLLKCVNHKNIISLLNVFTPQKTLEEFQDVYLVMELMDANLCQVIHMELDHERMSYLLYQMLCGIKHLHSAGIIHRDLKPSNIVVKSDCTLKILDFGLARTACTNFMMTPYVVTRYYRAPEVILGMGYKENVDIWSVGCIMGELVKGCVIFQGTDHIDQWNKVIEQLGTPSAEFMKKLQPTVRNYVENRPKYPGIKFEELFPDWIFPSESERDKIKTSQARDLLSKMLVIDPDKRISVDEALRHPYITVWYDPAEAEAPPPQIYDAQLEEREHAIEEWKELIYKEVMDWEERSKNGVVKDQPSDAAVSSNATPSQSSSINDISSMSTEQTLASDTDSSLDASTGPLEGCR

[32] = target: Dual specificity tyrosine-phosphorylation-regulated kinase 1B (Homo sapiens, UniProt Q9Y463); experiment: Navigating the Kinome. Panel member name: DYRK1B; format: functional
[33] = target: Inhibitor of nuclear factor kappa-B kinase subunit epsilon (Homo sapiens, UniProt Q14164); experiment: Navigating the Kinome. Panel member name: IKBKE; format: functional
[34] = target: Hepatocyte growth factor receptor (Homo sapiens, UniProt P08581); format: functional;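 further: kinase panel profiling across the kinome, with MET as the panel member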
[35] = target: cAMP-dependent protein kinase catalytic subunit PRKX (Homo sapiens, UniProt P51817); format: functional
[36] = target: Aurora kinase B (Homo sapiens, UniProt Q96GD4); format: functional
[37] = target: Serine/threonine-protein kinase TBK1 (Homo sapiens, UniProt Q9UHD2); experiment: Navigating the Kinome. Panel member name: TBK1; format: functional
[38] = target: 5'-AMP-activated protein kinase catalytic subunit alpha-1 (Homo sapiens, UniProt Q13131); format: functional
[39] = target: Calcium/calmodulin-dependent protein kinase type II subunit alpha (Homo sapiens, UniProt Q9UQM7); experiment: Navigating the Kinome. Panel member name: CAMK2A; format: functional
[40] = target: Dual specificity mitogen-activated protein kinase kinase 1 (Homo sapiens, UniProt Q02750); experiment: Navigating the Kinome. Panel member name: MAP2K1; format: functional
[41] = target: BDNF/NT-3 growth factors receptor (Homo sapiens, UniProt Q16620); format: functional;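 further: NTRK2 measured as one member of a broad kinome-wide kinase profiling panel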
[42] = target: Tyrosine-protein kinase receptor TYRO3 (Homo sapiens, UniProt Q06418); format: functional;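 further: TYRO3 value obtained as one member of a kinome-wide profiling panel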
[43] = target: Activated CDC42 kinase 1 (Homo sapiens, UniProt Q07912); experiment: Navigating the Kinome. Panel member name: ACK1; format: functional
[44] = target: Activin receptor type-1 (Homo sapiens, UniProt Q04771); experiment: Navigating the Kinome. Panel member name: ACVR1; format: functional
[45] = target: Dual specificity protein kinase CLK4 (Homo sapiens, UniProt Q9HAZ1); format: functional
[46] = target: Tyrosine-protein kinase JAK3 (Homo sapiens, UniProt P52333); format: functional
Chain of Tyrosine-protein kinase JAK3 (P52333 whole entry): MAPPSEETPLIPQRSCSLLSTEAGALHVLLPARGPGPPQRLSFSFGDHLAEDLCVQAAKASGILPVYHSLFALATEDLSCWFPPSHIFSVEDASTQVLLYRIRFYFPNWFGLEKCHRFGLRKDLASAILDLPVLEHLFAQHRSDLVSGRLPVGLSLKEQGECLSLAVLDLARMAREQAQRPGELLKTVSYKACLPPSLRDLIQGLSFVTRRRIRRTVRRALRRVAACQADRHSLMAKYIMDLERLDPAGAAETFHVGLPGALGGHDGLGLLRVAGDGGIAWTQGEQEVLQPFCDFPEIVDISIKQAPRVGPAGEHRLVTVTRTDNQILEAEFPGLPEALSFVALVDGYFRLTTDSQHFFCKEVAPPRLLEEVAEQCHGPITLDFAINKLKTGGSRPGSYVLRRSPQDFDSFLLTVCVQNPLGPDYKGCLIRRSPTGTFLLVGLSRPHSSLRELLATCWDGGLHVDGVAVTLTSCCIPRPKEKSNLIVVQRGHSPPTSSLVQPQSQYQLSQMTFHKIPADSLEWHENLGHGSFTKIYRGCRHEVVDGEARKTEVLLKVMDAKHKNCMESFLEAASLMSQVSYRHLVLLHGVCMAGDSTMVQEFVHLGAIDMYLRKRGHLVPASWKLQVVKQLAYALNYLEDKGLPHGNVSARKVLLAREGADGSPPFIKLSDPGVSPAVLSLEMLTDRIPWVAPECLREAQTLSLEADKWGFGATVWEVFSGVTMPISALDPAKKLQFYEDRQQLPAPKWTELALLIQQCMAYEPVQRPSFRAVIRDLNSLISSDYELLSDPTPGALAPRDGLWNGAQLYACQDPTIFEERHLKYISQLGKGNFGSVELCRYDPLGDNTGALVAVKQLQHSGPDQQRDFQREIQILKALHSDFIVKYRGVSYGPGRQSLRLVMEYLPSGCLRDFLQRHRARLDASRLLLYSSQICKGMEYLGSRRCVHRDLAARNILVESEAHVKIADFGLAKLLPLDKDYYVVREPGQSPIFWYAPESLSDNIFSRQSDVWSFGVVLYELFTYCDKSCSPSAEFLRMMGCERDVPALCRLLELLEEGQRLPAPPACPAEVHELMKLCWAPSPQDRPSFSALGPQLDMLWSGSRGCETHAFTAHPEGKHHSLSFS

[47] = target: G protein-coupled receptor kinase 5 (Homo sapiens, UniProt P34947); experiment: Navigating the Kinome. Panel member name: GPRK5; format: functional
[48] = target: Platelet-derived growth factor receptor alpha (Homo sapiens, UniProt P16234); experiment: Navigating the Kinome. Panel member name: PDGFRA; format: functional
[49] = target: Fibroblast growth factor receptor 1 (Homo sapiens, UniProt P11362); format: functional
[50] = target: Glycogen synthase kinase-3 alpha (Homo sapiens, UniProt P49840); format: functional;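 further: GSK3A result taken from a broad kinome-wide kinase panel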
[51] = target: Rho-associated protein kinase 1 (Homo sapiens, UniProt Q13464); format: functional;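 further: measured within a broad kinome-wide panel profiling many kinases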
[52] = target: Mitogen-activated protein kinase 8 (Homo sapiens, UniProt P45983); format: functional;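 further: value comes from one member of a kinome-wide kinase profiling panel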
[53] = target: Macrophage-stimulating protein receptor (Homo sapiens, UniProt Q04912); experiment: Navigating the Kinome. Panel member name: MST1R; format: functional
[54] = target: Protein kinase C theta type (Homo sapiens, UniProt Q04759); experiment: Navigating the Kinome. Panel member name: PRKCQ; format: functional
[55] = target: Serine/threonine-protein kinase Nek2 (Homo sapiens, UniProt P51955); format: functional
[56] = target: Glycogen synthase kinase-3 beta (Homo sapiens, UniProt P49841); format: functional;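 further: value comes from a broad kinome profiling panel, with GSK3B as the panel member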
[57] = target: Mitogen-activated protein kinase kinase kinase kinase 2 (Homo sapiens, UniProt Q12851); format: functional;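 further: measured as one member of a kinome-wide kinase panel, with MAP4K2 as the panel entry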
[58] = target: Tyrosine-protein kinase ABL1 (Homo sapiens, UniProt P00519); format: functional
[59] = target: Macrophage colony-stimulating factor 1 receptor (Homo sapiens, UniProt P07333); format: functional;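 further: value comes from the Navigating the Kinome screening panel, CSF1R member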
[60] = target: Mitogen-activated protein kinase 14 (Homo sapiens, UniProt Q16539); format: functional;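 further: part of a kinome-wide panel, MAPK14 entry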
[61] = target: Tyrosine-protein kinase JAK2 (Homo sapiens, UniProt O60674); format: functional;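 further: JAK2 tested as one member of a kinase panel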
[62] = target: Receptor-type tyrosine-protein kinase FLT3 (Homo sapiens, UniProt P36888); format: functional;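 further: FLT3 was tested as one member of a kinome-wide kinase panel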
Chain of Receptor-type tyrosine-protein kinase FLT3 (P36888 whole entry): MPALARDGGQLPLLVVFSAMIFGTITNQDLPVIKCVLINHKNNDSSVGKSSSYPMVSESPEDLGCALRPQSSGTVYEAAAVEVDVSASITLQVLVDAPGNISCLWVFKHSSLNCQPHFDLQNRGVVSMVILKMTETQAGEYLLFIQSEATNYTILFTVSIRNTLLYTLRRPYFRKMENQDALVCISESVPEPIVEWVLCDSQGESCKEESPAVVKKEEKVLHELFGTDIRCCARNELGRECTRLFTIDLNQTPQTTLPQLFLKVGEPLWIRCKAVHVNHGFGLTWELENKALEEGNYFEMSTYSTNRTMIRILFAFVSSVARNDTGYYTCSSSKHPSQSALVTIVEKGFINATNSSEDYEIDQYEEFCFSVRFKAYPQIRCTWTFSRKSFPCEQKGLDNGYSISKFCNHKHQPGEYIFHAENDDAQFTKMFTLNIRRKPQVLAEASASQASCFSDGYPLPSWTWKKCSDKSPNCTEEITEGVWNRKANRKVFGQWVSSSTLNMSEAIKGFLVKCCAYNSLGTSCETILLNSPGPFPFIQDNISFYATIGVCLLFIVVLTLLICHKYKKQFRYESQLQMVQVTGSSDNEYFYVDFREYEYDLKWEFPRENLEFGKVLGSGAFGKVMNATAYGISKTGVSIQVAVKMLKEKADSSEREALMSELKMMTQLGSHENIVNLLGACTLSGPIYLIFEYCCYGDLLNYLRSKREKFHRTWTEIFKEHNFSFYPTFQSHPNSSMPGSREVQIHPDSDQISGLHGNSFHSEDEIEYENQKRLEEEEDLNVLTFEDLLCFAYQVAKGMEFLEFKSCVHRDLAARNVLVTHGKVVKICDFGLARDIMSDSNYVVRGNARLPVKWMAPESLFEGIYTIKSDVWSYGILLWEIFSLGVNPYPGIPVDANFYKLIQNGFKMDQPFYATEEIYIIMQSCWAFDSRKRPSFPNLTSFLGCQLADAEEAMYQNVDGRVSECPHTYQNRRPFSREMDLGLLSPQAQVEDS

T1 sequence (P78595 whole entry): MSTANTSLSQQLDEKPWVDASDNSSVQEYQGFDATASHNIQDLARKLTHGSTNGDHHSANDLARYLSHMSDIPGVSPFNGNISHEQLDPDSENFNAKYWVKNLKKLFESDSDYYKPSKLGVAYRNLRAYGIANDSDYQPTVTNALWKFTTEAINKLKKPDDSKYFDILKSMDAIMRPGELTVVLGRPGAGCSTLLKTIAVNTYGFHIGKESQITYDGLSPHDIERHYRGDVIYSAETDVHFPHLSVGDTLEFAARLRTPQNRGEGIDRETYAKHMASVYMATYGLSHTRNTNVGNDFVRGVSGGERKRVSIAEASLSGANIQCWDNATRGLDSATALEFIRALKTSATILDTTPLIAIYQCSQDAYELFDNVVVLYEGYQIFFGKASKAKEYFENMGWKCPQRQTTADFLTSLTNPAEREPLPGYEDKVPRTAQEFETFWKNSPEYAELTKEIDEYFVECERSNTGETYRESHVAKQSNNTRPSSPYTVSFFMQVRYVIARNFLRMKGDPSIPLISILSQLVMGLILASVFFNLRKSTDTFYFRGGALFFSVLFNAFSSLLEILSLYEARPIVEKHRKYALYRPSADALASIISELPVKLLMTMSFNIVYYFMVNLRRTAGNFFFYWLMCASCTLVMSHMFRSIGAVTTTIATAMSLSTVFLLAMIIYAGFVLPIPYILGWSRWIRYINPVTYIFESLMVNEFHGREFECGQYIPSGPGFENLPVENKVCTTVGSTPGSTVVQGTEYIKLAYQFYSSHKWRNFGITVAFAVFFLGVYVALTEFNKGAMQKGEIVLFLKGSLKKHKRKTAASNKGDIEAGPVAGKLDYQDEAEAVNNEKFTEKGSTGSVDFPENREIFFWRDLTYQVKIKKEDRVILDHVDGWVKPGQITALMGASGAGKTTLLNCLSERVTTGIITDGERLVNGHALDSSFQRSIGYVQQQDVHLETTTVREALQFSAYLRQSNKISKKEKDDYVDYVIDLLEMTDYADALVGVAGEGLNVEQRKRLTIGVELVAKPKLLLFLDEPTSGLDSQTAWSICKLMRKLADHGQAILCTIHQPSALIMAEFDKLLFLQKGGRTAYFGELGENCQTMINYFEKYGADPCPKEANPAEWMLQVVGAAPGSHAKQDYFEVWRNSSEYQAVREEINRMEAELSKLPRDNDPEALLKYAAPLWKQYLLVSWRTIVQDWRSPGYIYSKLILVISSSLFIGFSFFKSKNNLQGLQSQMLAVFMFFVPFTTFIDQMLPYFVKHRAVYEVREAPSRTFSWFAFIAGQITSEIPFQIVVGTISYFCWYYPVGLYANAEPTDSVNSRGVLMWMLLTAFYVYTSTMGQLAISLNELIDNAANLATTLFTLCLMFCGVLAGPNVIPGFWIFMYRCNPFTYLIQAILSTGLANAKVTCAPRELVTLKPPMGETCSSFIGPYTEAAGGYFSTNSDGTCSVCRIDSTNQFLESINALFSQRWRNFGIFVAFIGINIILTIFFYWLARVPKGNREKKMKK

## Cc1ccc2sc(N(CCCN(C)C)C(=O)c3ccc(Br)s3)nc2c1C
[1]
  EC50: 10.3 µM (active)
[2]
  EC50: > 89.2 µM (inactive)
[3]
  EC50: 20.1 µM (inactive)
[4]
  IC50: 35.3 µM (inactive)
[5]
  EC50: > 54.7 µM (inactive)
[6]
  EC50: 50.5 µM (active)
[7]
  EC50: > 54.7 µM (inactive)

## Cc1ccc(Oc2c(Cl)cnn(Cc3cccc4ccccc34)c2=O)cc1
[8]
  IC50: 8.23 µM (active)
[9]
  IC50: 2.57 µM (active)

## Cc1cc(OCc2ccc(Cl)c(Cl)c2)ccc1CN1CC(C(=O)O)C1
[10]
  Ki: > 3.16 µM (inactive)
[11]
  Ki: > 3.16 µM (inactive)
[12]
  Ki: > 3.98 µM (inactive)
[13]
  Ki: > 5.01 µM (inactive)
[14]
  Ki: > 3.16 µM (inactive)
[15]
  Ki: > 3.98 µM (inactive)
[16]
  Ki: > 6.31 µM (inactive)
[17]
  Ki: > 2.51 µM (inactive)
[18]
  Ki: > 3.98 µM (inactive)
[19]
  Ki: > 3.98 µM (inactive)
[20]
  Ki: > 2.51 µM (inactive)
[21]
  Ki: > 2.51 µM (inactive)
[22]
  Ki: > 6.31 µM (inactive)
[23]
  Ki: > 3.98 µM (inactive)
[24]
  Ki: > 6.31 µM (inactive)
[25]
  Ki: > 6.31 µM (inactive)
[26]
  Ki: > 3.16 µM (inactive)
[27]
  Ki: > 3.98 µM (inactive)
[28]
  Ki: > 5.01 µM (inactive)
[29]
  Ki: > 2.51 µM (inactive)
[30]
  Ki: > 6.31 µM (inactive)
[31]
  Ki: > 3.98 µM (inactive)
[32]
  Ki: > 2.51 µM (inactive)
[33]
  Ki: > 3.16 µM (inactive)
[34]
  Ki: > 2.51 µM (inactive)
[35]
  Ki: > 3.16 µM (inactive)
[36]
  Ki: > 3.98 µM (inactive)
[37]
  Ki: > 3.16 µM (inactive)
[38]
  Ki: > 3.16 µM (inactive)
[39]
  Ki: > 3.98 µM (inactive)
[40]
  Ki: > 3.16 µM (inactive)
[41]
  Ki: > 3.98 µM (inactive)
[42]
  Ki: > 3.16 µM (inactive)
[43]
  Ki: > 3.98 µM (inactive)
[44]
  Ki: > 3.98 µM (inactive)
[45]
  Ki: > 2.51 µM (inactive)
[46]
  Ki: > 5.01 µM (inactive)
[47]
  Ki: > 3.98 µM (inactive)
[48]
  Ki: 0.2 µM (active)
[49]
  Ki: > 3.98 µM (inactive)
[50]
  Ki: > 3.98 µM (inactive)
[51]
  Ki: 3.16 µM (active)
[52]
  Ki: > 5.01 µM (inactive)
[53]
  Ki: > 3.98 µM (inactive)
[54]
  Ki: > 2.51 µM (inactive)
[55]
  Ki: > 3.16 µM (inactive)
[56]
  Ki: > 3.98 µM (inactive)
[57]
  Ki: > 2.51 µM (inactive)
[58]
  Ki: > 2.51 µM (inactive)
[59]
  Ki: > 2.51 µM (inactive)
[60]
  Ki: > 3.98 µM (inactive)
[61]
  Ki: > 2.51 µM (inactive)
[62]
  Ki: > 3.16 µM (inactive)

From ChEMBL document CHEMBL1201862, “PubChem BioAssay data set” (2004)
